Square brackets hold non-standard residues; d marks the D form. Ends that are not written are not given here. Peptide text beside a SMILES is read from it. Nle = CCCC[C@H](N)C(=O)O
Legend:
[1] = cited from earlier work
[2] = Solubility and aggregation of peptide compared with SEQ ID NO. 1; format: physicochemical; conditions: Met and Cys replaced by norleucine and serine
From the text: Another example of such an amino acid sequence is TKWPVDN/eSPNVS (SEQ ID. NO. 6). In comparison with SEQ ID. NO. 1, replacement of the oxidation-prone amino acids (methionine and cysteine) with their biosteric counterparts (norleucine and serine respectively) in SEQ ID. NO. […] The peptide ligands of the instant invention also include variants or homologues of SEQ ID NO: 6, which may be at least 75% identical to SEQ ID NO: 6 or which may contain conservative substitutions of corresponding amino acid residues.

[3] = test system: Caco-2 intestinal epithelial monolayer; assay: Transport of FITC-labeled peptide across Caco-2 intestinal epithelial monolayer; format: cell-based, human; conditions: Caco-2 monolayers, n=3, p<0.05
From the text: FIG. 2. Illustrates that peptide-labeled #12 (SEQ ID NO. 2) and its sequence-scrambled peptide FITC-12C1 were transported across Caco-2 intestinal epithelial monolayer in the presence and absence of chylomicron lipid-forming micelles.
Fluorescently labeled peptides according to SEQ ID NOS. 1 and 3 were synthesized. The peptide according to SEQ ID NO. […] The peptide according to SEQ ID NO. […] Therefore, the peptide according to SEQ ID NO. 2 aggregate may be viewed as a small nanoparticle displaying some peptides according to SEQ ID NO. 2 in correct orientation (i.e., on the surface not buried inside the nanoparticle). Even with this imperfect display, some increase in chylomicron lipid-dependent translocation across Caco-2 monolayers is still noticeable over a scrambled peptide according to SEQ ID NO. 1 (12C1) (FIG. 2). FITC-12 was 4.6-fold more efficiently transported than the sequence-scrambled control (FIG. 2).

Compound | LogP [1] | further results
Cc1cc(C2CCCCC2)n(O)c(=O)c1 [Ciclopirox] | 2.2 | 
CC(C)CN(C[C@@H](O)[C@H](Cc1ccccc1)NC(=O)O[C@H]1CO[C@H]2OCC[C@H]21)S(=O)(=O)c1ccc(N)cc1 [Darunavir] | 1.8 | 
C[C@@H]1CCO[C@H]2Cn3cc(C(=O)NCc4ccc(F)cc4F)c(=O)c(O)c3C(=O)N12 [Dolutegravir] | 1.0 | 
CCCC[C@H](NC(=O)[C@H](CC(=O)O)NC(=O)[C@@H](NC(=O)[C@@H]1CCCN1C(=O)[C@H](Cc1c[nH]c2ccccc12)NC(=O)[C@H](CCCCN)NC(=O)[C@@H](N)[C@@H](C)O)C(C)C)C(=O)N[C@@H](CO)C(=O)N1CCC[C@H]1C(=O)N[C@@H](CC(N)=O)C(=O)N[C@H](C(=O)N[C@@H](CO)C(=O)O)C(C)C [SEQ ID. NO. 6, TKWPVDN/eSPNVS] (H-TKWPVD[Nle]SPNVS-OH; N-terminus and C-terminus assumed) |  | solubility in comparison with SEQ ID. NO. 1 [2]: better solubility
FITC-12: fluorescently (FITC) labeled peptide #12 (SEQ ID NO. 2) (QDDVQTWQRQPK; also: FITC label, position not given here) |  | transport efficiency relative to sequence-scrambled control (12C1) [3]: 4.6 fold

From patent US9566349B2, “Intestinal peptide targeting ligands” (Rutgers, The State University of New Jersey, priority 2010, dated 2017)
